{"source": "patent US20230346777A1", "about": "“USE OF SGC ACTIVATORS FOR THE TREATMENT OF OPHTHALMOLOGIC DISEASES” (Bayer Aktiengesellschaft, priority 2020, published 2023)", "key": {"[1]": {"system": "retinal ischemia reperfusion (I/R) in rat", "test": "Sub-chronic changes in rat retinal structure after retinal ischemia reperfusion (I/R), therapeutic and prophylactic settings", "type": "in vivo, male Wistar Unilever rats", "conditions": "for IPL (inner plexiform layer) thickness: H&E sections", "excerpt": "B-8 Evaluation of Sub-Chronic Changes in Rat Retinal Structure after Retinal Ischemia Reperfusion (I/R) Therapeutic and Prophylactic Settings\nSix male Wistar Unilever rats were used per experimental group. On induction day, rats were anesthetized with an intraperitoneal injection of Rompun® and Ketavet® before the pupils of the right eyes were dilated with Alcain eye drops and in addition treated with Vigamox® eye drops. The left eye is covered with Bepanthen® eye cream. Under deep anesthesia, the retina and the optic nerve were examined by optical coherence tomography (OCT) as a baseline measurement. The induction was done as the anterior chamber was punctured with a 30 G needle. Through a tube, 0.9% NaCl solution was pumped into the anterior chamber with a pressure 120 mm Hg. The pressure is regulated with a blood pressure cuff. The intraocular pressure (IOP) was elevated for 45 min. The procedure was successful as the eyeballs discolored because of vascular obstruction. After 45 min, the needle was removed, eye cream was put on the right eye and the animal could wake up. Compound (e.g. example 3, formula I-E-R) or its vehicle were orally applied, once daily (QD). The application volume was 5 mL/kg. In prophylactic setting, animals started the treatment 2 days before induction and received an intravenous (IV) bolus of compound (e.g. example 3, formula I-E-R) (i.v. 3 mg/kg in rat plasma) 15 minutes before induction. Treatment continued then after for 21 days. In the therapeutic setting, animals received an intravenous (IV) bolus of compound (e.g. example 3, formula I-E-R) (i.v. 3 mg/kg in rat plasma) 15 minutes after induction. Treatment continued then after for 21 days; once daily (3 mg/kg, PO QD). At day 7 and day 21, the retina and the optic nerve were examined by optical coherence tomography (OCT). The retinal function was evaluated by the ERG (Electroretinography) at day 7 and day 21 post induction according to the method disclosed in McCulloch et al., 2015. Functional read-out of retinal electrical signal in response to light stimulation “b-wave amplitude (μv)” represents inner retinal function. Then the eyes were collected for histopathology and preserved in Davidson's solution. The eye sections were stained with hematoxylin and eosin staining. The total retinal thickness and the inner plexiform layer thickness was measured at 1000 μm distances from the optic nerve using (Microscope Software ZEN, Zeiss, Germany).\nNeuroprotection: The inner plexiform layer (IPL) functions as a relay station for the vertical-information-carrying nerve cells, the bipolar cells, to connect the photoreceptor cells to the ganglion cells. The IPL layer thickness was measured in histological sections stained with (H&E)."}, "[2]": {"system": "Streptozotocin-induced DR model in rat", "test": "Streptozotocin-induced DR model in rat (STZ rat model)", "type": "in vivo", "conditions": "STZ diabetic rats, vs vehicle", "protocol": "B-9 Streptozotocin-Induced DR Model in Rat (STZ Rat Model)\n135 male 6-week-old male SD rats (200 to 250 g) were randomized to become diabetic or non-diabetic. Following an overnight fast, SD rats were assigned to become diabetic by receiving a single intraperitoneal injection of streptozotocin (55 mg per kg; Sigma-Aldrich, St. Louis, USA) diluted in 0.1M citrate buffer, pH 4.5. Rats were weighed and their blood glucose levels measured (Accu-check Advantage II Blood Glucose Monitor, Roche Diagnostics, USA). Only rats with blood glucose levels greater than 250 mg/dL were considered diabetic (Li et al. 2002). Insulin was administered three times per week to reduce mortality and promote weight gain (2 to 4 units s.c. Humulin NPH, Eli Lilly and Co., Indianapolis, Ind., USA). The pathological events that occur in the early stages of DR were evaluated. Functional read-out of retinal electrical signal in response to light stimulation “b-wave amplitude (μv)” represents inner retinal function. The retinal function ERG (Electroretinography) was tested 2 months after STZ injection according to the method disclosed in McCulloch et al., 2015 and animals were randomized into subgroups with same severity. The animals received treatment after randomization for 2 months and were terminated then after. […]"}}, "note": "“Also recorded” adds a separate entry of the source. Structures can show the parent of a compound that is named as a salt."}
{"smiles": "CC(C)CN1CCN(c2ccc(-c3ccc(Cl)cc3N3CCC[C@@H](n4ncc(C(=O)O)c4C(F)F)C3)cc2)CC1", "note": "[Example 3, 1-{1-[4-Chloro-4′-(4-isobutylpiperazin-1-yl)[biphenyl]-2-yl]piperidin-3-yl}-5-(difluoromethyl)-1H-pyrazole-4-carboxylic acid hydrochloride]", "values": [{"measurement": "retinal structure and photoreceptors integrity (histology)", "setting": "[1]; I/R rats vs IR only", "result": "the retinal structure was preserved, and the photoreceptors integrity was intact"}, {"measurement": "retinal thickness (histology)", "setting": "[1]; I/R rats, 3 mg/kg PO QD for 21 days plus i.v. 3 mg/kg bolus, at 3 weeks vs IR only", "result": "significantly higher retinal thickness compared to IR only animals"}, {"measurement": "retinal structure / mean total retinal thickness by optical coherence tomography (OCT)", "setting": "[1]; I/R rats, 1- and 3-weeks post induction vs IR only", "result": "protect retinal structure"}, {"measurement": "retinal function measured by ERG (b wave amplitude)", "setting": "[1]; I/R rats, one week and 3 weeks post induction vs IR, hydrochloride", "result": "significant difference in retinal function; also recorded: reduces ischemia induced retinal dysfunction"}, {"measurement": "IPL (inner plexiform layer) thickness", "setting": "[1]; I/R rats, prophylactic setting (FIG. 4A)", "result": "preserved"}, {"measurement": "IPL (inner plexiform layer) thickness", "setting": "[1]; I/R rats, therapeutic setting (FIG. 4B)", "result": "preserved"}, {"measurement": "b wave amplitude (ERG, retinal function)", "setting": "[2]; 15 mg/kg oral gavage QD for 2 months, started 2 months after STZ, hydrochloride, 15 mg/kg", "result": "significant higher b wave amplitude compared to vehicle treated animals; also recorded: reduces diabetic induced retinal dysfunction and diabetic retinopathy progression"}, {"measurement": "diabetic retinopathy disease progression (b wave values)", "setting": "[2]; oral QD, chronic diabetic retinopathy model", "result": "prevented disease progression"}]}
